In a melting point compilation (Tetko et al.; mined from patent text by program, amines drawn as free bases though some values may be those of a salt):

Compound	melting point [°C]
O=C(Cc1ccncc1)NC1CCCCC1	147 to 148
CC(C)(C)c1ccc(C=C(CCCCCC2CCCCC2)COCc2ccccc2)cc1NC(=O)CC1c2ccccc2Oc2ccccc21	110
COC(=O)c1nc(NC(=O)c2ccccn2)ccc1Oc1nc(OC)cc(OC)n1	146 to 150
CCOC(=O)C(OC)C(=O)Nc1ccc(Br)cc1C (configuration not stated)	93 to 95
N#Cc1ccc2c(c1)ncn2-c1cccc(-c2cccnc2)c1	191 to 193
COC(=O)NCCCCC(=O)OC[C@@H]1CC(c2ccc(-c3ccc(N4C[C@H](Cn5ccnn5)OC4=O)cc3F)cn2)=NO1	90
Cc1nc(-c2ccc(C(F)(F)F)cc2)oc1COc1ccc(Cc2nn[nH]n2)cc1	208
NC(=O)CN1CC(OCc2ccccc2)=CC1=O	174 to 176
CC(C)(C)OC(=O)NC(C(=O)O)C1(O)CCOCC1 (configuration not stated)	140 to 141
CC(n1cncn1)C(O)(Cn1cncn1)c1ccc(F)cc1 (configuration not stated)	103 to 106
Cc1nc2ccccc2n1-c1nc(Cl)nc(Cl)n1	> 300
O=C(O)Cc1cc(F)cc(Cc2nc3c(F)c(F)cc(F)c3s2)c1	139 to 142
COC(=O)c1nc(-c2ccc(Cl)c(F)c2)c(F)c(N)c1SC	125 to 126
O=c1c2ccc(F)cc2oc2ccc(C(F)(F)F)cc12	140 to 142
CCOC(=O)c1c(Cl)nc(CC)n1Cc1ccc2oc(-c3ccccc3NC(=O)OC(C)(C)C)c(Br)c2c1	73 to 74
Cc1cc(-n2cncn2)c2cccc(OCc3c(Cl)ccc(S(=O)(=O)N4CCC[C@H]4C(=O)O)c3Cl)c2n1	146
CCOC(=O)[C@H](COCc1ccccc1)NC(=O)C(C)(C)NC(=O)[C@@H](SC(C)=O)C(C)C	55 to 57
CN(C(=O)Nc1nc(OCC(F)(F)F)cc(OCC(F)(F)F)n1)c1ccc(Br)cc1	110 to 111
CC1COc2cccc([N+](=O)[O-])c2N1 (configuration not stated)	60
COc1ccc2cc(CC3=C(CC(=O)O)CCCC3=O)ccc2c1Br	165 to 166
CC(C)N1C(=O)NC(c2cnc3ccccc3c2)c2cc3c(cc21)OCO3 (configuration not stated)	202 to 205
CCN(CC)CCNC(=O)c1c(O)c2cnc(-c3ccccc3)nc2n(CCOC)c1=O	115 to 117
COC(=O)c1ccc(CN2N=C(C(C)(C)C)CC2=O)cc1	161 to 162

Compound	melting point [°C]
COc1cc2c(cc1OC)C(CN1CCN(c3ccc(F)cc3)CC1)OCCC2 (configuration not stated)	135 to 136
O=C1c2ccccc2C(=O)N1Cn1nnn(-c2ccccc2)c1=S	130 to 134
Cc1cc(=O)[nH]c2cc(OCCCN3CCN(c4cccc(Cl)c4)CC3)ccc12	212 to 214
COc1cc2c(cc1OC)/C(=N/OCc1ccc3nonc3c1)CC2	163 to 166
CN(C)C1CCc2[nH]c3cc(F)ccc3c2C1 (configuration not stated)	174 to 176
COC1=C(OC)C(=O)C(CCCCC#CCCCCO)=C(C)C1=O	52 to 53
CC(C)(C)OC(=O)N1CCN(S(=O)(=O)c2ccc(Br)s2)CC1	127
O=c1cc2c(nn1-c1ccc(Cl)cc1)-c1cccc(Cl)c1S(=O)CC2 (configuration not stated)	217 to 219
Cc1c(SCCCN2CCN(Cc3ccc(Cl)s3)CC2)ccnc1CSc1nc2cc(F)ccc2[nH]1	116 to 119
CC(C)CC1CCCCCc2c1oc(=O)c(C(c1ccccc1)C1CC1)c2O (configuration not stated)	86 to 92
Cc1c[nH]c2ccc(C#N)cc12	110 to 112
CC(CCc1ccccc1)N(Cc1ccccc1)CC(O)c1ccc(N)c(S(N)(=O)=O)c1 (configuration not stated)	133 to 136
CC(N1CCN(c2nnn(Cc3ccc(C(C)(C)C)cc3)n2)CC1)C(O)(Cn1cncn1)c1ccc(F)cc1F (configuration not stated)	99 to 101
CCC(=O)c1cccc(C(N)=O)c1	121 to 122
CC(=O)N1CCc2nc3cccc(N)c3c(C)c2CC1	150
CN(C)c1ccc(C=CC(=O)CC(=O)C=Cc2ccc(N(C)C)cc2)cc1	207 to 208
CN(C)C1CCc2oc3ccc(NC(=O)c4ccc(F)cc4)cc3c2C1 (configuration not stated)	137 to 138
CC(C)(C)C(=O)N(NC(=O)c1ccccc1)C(C)(C)C	217 to 220
O=C(O)c1cc(-c2ccc(C(F)(F)F)cc2)cnc1O	305 to 315
CC(=O)NC1C(NC(=N)N)C=C(C(=O)O)OC1C(OC(=O)NCCCO)C(O)CO (configuration not stated)	265 to 267
CC(C#N)c1nc(O)n[nH]1 (configuration not stated)	182 to 184
CC(=O)NCCC(=O)NCCNC(=O)OCc1ccccc1	180 to 182
COC(=O)C(C)(C)OCc1cc2cc(Cl)ccc2n1S(=O)(=O)c1ccc2c(c1)OCO2	90 to 92

More lines, now with the values ahead:

melting point [°C]	Compound
248 to 250	CCC(NC(=O)C(F)F)c1ccc(Cl)c2nc3n(c12)CCCN3c1ccc(Cl)cc1Cl (configuration not stated)
161 to 162	O=C(NCC12CC3CC(CC(C3)C1)C2)c1cc(Cl)ccc1Cl
198 to 200	CCOc1nc(N2CCN(C(=O)CCC(=O)O)CC2)nc(N2CCS(=O)CC2)c1[N+](=O)[O-]
190	O=C(Nc1ccc2ccc(Oc3ccccc3)nc2n1)C1CC1
169 to 172	O=C(CN1CCN(c2ccc(CO)c(Cl)c2)CC1)c1cc2ccccc2o1
58 to 61	COC(=O)C(Cc1ccccc1)Oc1ccc2cc(-c3cnc(-c4cn(C)c5ccccc45)o3)ccc2c1 (configuration not stated)
198	Cc1cc(C(=O)O)c(S(N)(=O)=O)s1
133 to 136	O=C1CCOc2ccc(O)cc21
273 to 275	COC(=O)c1c(C(=O)O)cc2ccc3c(c2c1-c1ccc2c(c1)OCO2)OCO3
69 to 70	CCOC(=O)C1CCCn2c(cc3ccccc32)C1 (configuration not stated)
77	CC(NC(N)=S)c1ccc(NS(C)(=O)=O)cc1 (configuration not stated)
183 to 185	CCOC(=O)c1cc2c(=O)n(C3CCCC3)c3ccccc3n2c1
177 to 178	COc1cc(C=C(C=O)C(C=O)=Cc2ccc(O)c(OC)c2)ccc1O
153	CCOC(=O)C1=C(C(=O)OCC)C(c2cccc([N+](=O)[O-])c2)C(C(=O)OCC)=C(CC)N1 (configuration not stated)
87.5 to 88	O=C(N1CC1)C(F)(F)C(O)(Cn1cncn1)c1ccc(F)cc1F (configuration not stated)
184 to 185	Cc1nc2cccc3n(CCCNS(C)(=O)=O)c(=O)c1n23
137 to 140	NC(=S)NN=C(CCCOC(=O)NCc1ccccc1)c1ccccc1
> 230	N#CC1=C(n2cccc2)Oc2c(ccc3cc(C(=O)O)c(O)cc23)C1c1cccc([N+](=O)[O-])c1 (configuration not stated)
200 to 201	COc1ccc2cnc(Nc3ccc(N4CCCCC4)c(F)c3)nc2c1C1CCCC1
157 to 158	COc1cccc2nc(-c3cc(C)c(OCCN4CCCC4)c(C)c3)[nH]c(=O)c12
230 to 240	Cc1ccnc(Nc2nc(-c3ccc4c(c3)OCCO4)cs2)c1
108 to 111	CCN(C#N)C(=O)C(C)Oc1ccc(Oc2cnc3cc(F)ccc3n2)cc1 (configuration not stated)
175 to 177	O=C(O)C(c1ccccc1)N1C(=O)c2ccccc2C1=O (configuration not stated)
> 250	COC(=O)c1ccc(CCCc2cnc3nc(N)nc(O)c3c2)cc1
146 to 148	Cc1nc2ccccc2nc1C(=O)OCCO
118 to 120	COCC(=O)N(c1c(C)cccc1C)C1CCOC1=O (configuration not stated)

melting point [°C]	Compound
100 to 120	COc1ccc(N2C(=O)C3Cc4c(ncn4Cc4ccccc4)CN3C2=S)cc1 (configuration not stated)
104 to 110	COc1cc(OC)nc(OC(C(=O)O)C(C)(C)CO)n1 (configuration not stated)
235 to 238	NC(=O)c1ccc(Cn2ccc(OCc3ccc(F)cc3F)c(Br)c2=O)cc1
80	CCCCCCCCCCOc1ccc(C(=O)c2ccc(OC(=O)[C@H]3CCCO3)cc2)cc1
189 to 191	OC(CCc1c[nH]cn1)(c1ccccc1)c1ccccc1
101 to 106	C#Cc1cc(=O)n2nc(S(=O)(=O)Cc3ccccc3)sc2n1
161 to 162	Nc1cc(Cl)ccc1C(=O)NCC1CCN(C(c2ccccc2)c2ccccc2)CC1
176 to 178	CN1C(=O)C(C(=O)Nc2ccc(Cl)c(Cl)c2)S(=O)(=O)c2cc(Cl)ccc21 (configuration not stated)
172 to 174	COc1ccc(C(=O)OCCOC(=O)NC2(C(=O)O)CC2)cc1OC
79 to 81	COc1ccc2nc(Cl)c(OC)nc2c1
118 to 120	COc1cc(OC)nc(Sc2sccc2NS(=O)(=O)CC#N)c1
149 to 151	O=C(NCCO)c1ccc(/C=C/c2ccccc2OCc2ccccc2)cc1
85 to 95	Cc1coc(-c2ccc(-c3ccccc3S(=O)(=O)Nc3onc(C)c3C)cc2)n1
305 to 306	CC(=O)Nc1ccc(Oc2c([N+](=O)[O-])cc(C(=O)O)cc2S(=O)(=O)NC(C)=O)cc1
214	CC1=C(C(=O)OCC(C)C)C(c2cccc([N+](=O)[O-])c2)c2c(nc(N3CCOCC3)nc2N2CCOCC2)N1 (configuration not stated)
239 to 242	COc1ccc(-c2c(-c3ccccc3)c(Sc3ccc4c(c3)CC[C@H]3N(C)C(=O)CC[C@]43C)nc3ccccc23)cc1
177	O=C1Nc2ccc(C(c3ccc(Cl)cc3)n3ccnc3)cc2C(c2cccc(Cl)c2)N1 (configuration not stated)
96 to 97	CCOC(=O)C(C#N)(CCN1CCOCC1)c1ccc(C(F)(F)F)cc1 (configuration not stated)
143	Cc1ccc2cccc(OCc3c(Cl)ccc(S(=O)(=O)N4CCCC4C(=O)NCc4ccccc4)c3Cl)c2n1 (configuration not stated)
283 to 284	CC1(C)Oc2ccc(S(=O)(=O)C(F)(F)F)cc2C(N2Cc3cccc([N+](=O)[O-])c3C2=O)C1O (configuration not stated)
178 to 180	N#CCCn1[nH]c(C#N)c(N=Nc2ccc(S(=O)(=O)Cl)cc2)c1=O
113 to 115	CC(=O)c1nc(C)c[nH]1
196 to 198	O=C(Nc1cccc2c1C(=O)c1c-2n[nH]c1C1CCN(C(=O)N2C[C@@H]3C[C@H]2CN3)CC1)NN1CCOCC1
161 to 164	Cn1c(COc2ccc(CC3SC(=O)NC3=O)cc2)nc2ccc(Oc3cccc(NC(=O)Nc4ccccc4C(F)(F)F)c3)cc21 (configuration not stated)
157 to 162	Cc1ccc(-c2ccc(C=Cc3ccc(Cl)cc3)s2)s1
